Experiments:
[1] = tested on: human scalp keratinocytes; assay: Western blot / immunostaining of ALDH1A3, KRT15, KRT19 in human keratinocytes; type: cell-based; details: for ALDH1A3 protein: human keratinocytes, western blot
Experimental: BMS493 treatment. BMS493 pan-RARs antagonist (1 μM) was pre-treated into keratinocytes for an hour and cells were incubated with RA (0.1 μM and 0.5 μM for human and mouse keratinocytes, respectively) or Poly (I:C) (0.1 μg per ml for both human and mouse keratinocytes) for 48 hrs. At the end of the experiment, cells were harvested for RNA and protein extraction to do further analysis including qRT-PCR and western blot.
Western blot analysis. Human and mouse keratinocytes were disrupted in M-PER lysis buffer (Thermo Fisher Scientific, #78501) containing protease inhibitors (Thermo Fisher Scientific, #87786) using ultrasonic homogenizer (20% power with 5 times every 2 seconds) to extract proteins. Then, protein concentrations were determined by BCA method (Thermo Fisher Scientific, #23225). Western blot procedures were followed by the protocol of NuPAGE system (Thermo Fisher Scientific). Briefly, 20 μg of protein samples were loaded for electrophoresis and transferred to polyvinylidene di-fluoride (PVDF) membrane (Bio-Rad, Hercules, CA). After blocking for at least an hour in 5% non-fat dry milk, the membrane was incubated with primary antibodies with appropriate dilutions (Table 2) at 4° C. overnight and followed by incubation with secondary antibodies for 1 hour at room temperature. Protein amounts were normalized to rabbit polyclonal anti-human β-actin antibody (1:1,000 dilution) (Cell Signaling Technology). Finally, proteins were visualized using SuperSignal West Pico PLUS chemiluminescent substrate kit (Thermo Fisher Scientific, #34577) and saved as image files using ChemiDoc XRS^+ (Bio-Rad). The signal intensity of protein was quantified using Image Lab software (Bio-Rad). Original images of representative blots were provided in the Source data file.
Immunofluorescence. For tissues, frozen-sections of mouse skin samples were stained with primary antibodies with appropriate dilution at 4° C. overnight, followed by incubation with goat anti-rabbit IgG labeled with Alexa Flour® 488 (Life Technologies) and 594 (Life Technologies) for 1 hour at room temperature. For cells, keratinocytes (3×10^5 cells) plated on cover-slip were fixed with 4% Paraformaldehyde (PFA) for 10 min, permeabilized in PBS including 0.5% Triton X-100 for 15 min at room temperature. After washing with PBS 3 times, cells were stained with primary antibodies overnight at 4° C., followed by incubation with goat anti-rabbit or mouse IgG labeled with Alexa Flour® 488 for 1 hour at room temperature. Cell nuclei were visualized by mounting medium including DAPI (Vector Laboratories, Burlingame, CA, H-1200). Fluorescence images were observed by fluorescence microscopy (Leica microsystems), taken pictures with ×100 (low magnification) and ×200 (high magnification), and saved as image files.

wounded skin = assay: Retinoid levels in mouse skin (LC-MS/MS, HPLC-UV); type: in vivo; details: for ROL and RE in wounded skin: WT and Tlr3−/− mice
Experimental: Wound Induced Hair Neogenesis (WIHN). All experiments were followed with the present inventors' WIHN protocol^1,9. Briefly, hair was shaved and a 1.2 cm^2 full-thickness skin on the backs of 21-day old (telogen) male and female mice was removed by sterile scissors. A single treatment of RA (30 μl) (0.1 μg per mouse) (Millipore Sigma, R2625) and BMS493 (30 μl) (0.1 μg per mouse) (Cayman Chemical, #17418) was applied topically onto open wound on WD1 of Tlr3^−/− and WT mice, respectively. Poly (I:C) (50 μl) (5 μg per mouse) (Invivogen, tlrl-pic) was injected under the healed scab on WD3 of WT mice as described before^9,34. On WD20-24, numbers of regenerated hair follicles were visualized and quantified in the re-epithelialized skin by non-invasive confocal scanning laser microscopy (CSLM) (Caliber I.D., VIVASCOPE 1500) as published^1,9. As a vehicle (Control), ethanol (EtOH), dimethylsulfoxide (DMSO), or PBS was treated for RA, BMS493, and Poly (I:C), respectively.
Tissue preparation from wounded mice. Wild type (C57BL/6J and 6NJ) and Tlr3^−/− mice were wounded as did in WIHN experiments. On PWD11 when wounds are closed, the center and edge of the wound was separated by scissors. Skin samples were immediately frozen and saved in liquid nitrogen for further analysis.
Determination of Retinoid Levels. For in vitro samples, human scalp keratinocytes were incubated with 0.5 μg per ml of Poly (I:C) for 48 hrs or siRNAs-transfected cells were incubated with 0.1 μg per ml of Poly (I:C) for 48 hrs. For in vivo samples, skin was analyzed from wild-type and Tlr3^−/− unwounded and wounded skin where wound regions (center and edge area) were cut by scalpel. Human skin was analyzed for retinoids with and without CO2 laser treatment as described. All samples were frozen at collection and stored at −80° C. until extraction. For in vitro experiments, media and cell pellets were analyzed separately. For in vivo experiments, tissues were homogenized in saline. Extraction of retinoids was performed under yellow lights using a two-step liquid-liquid extraction that has been described in detail previously using 4,4-dimethyl-RA as an internal standard for RA and retinyl acetate as an internal standard for retinol and total retinyl ester^43-46. For the extraction of retinoids, 1 to 3 ml of 0.025 M KOH in ethanol was added to tissue homogenates (in vivo) or cell culture (in vitro) samples. Then 10 ml hexane (for in vivo tissue sample) or 5 ml hexane (for in vitro cell culture sample) was added to the aqueous ethanol phase. The samples were vortexed and centrifuged for 1 to 3 min at 1000 rpm in a Dynac centrifuge (Becton Dickinson) to facilitate phase separation and pellet precipitated protein. The hexane (top) phase containing nonpolar retinoids (ROL and RE) was removed. 4 M HCl (60-180 μl) was added to the remaining aqueous ethanol phase, samples were vortexed, and then polar retinoids (RA) were removed by extraction with a second 5-10 ml aliquot of hexane as described above. Organic hexane phases were evaporated under nitrogen while heating at approximately 25 to 30° C. in a water bath (model N-EVAP 112, Organomation Associates, Berlin, MA, USA). All samples were resuspended in 60 μl acetonitrile. Only glass containers, pipettes, and syringes were used to handle retinoids.
Levels of RA were determined by liquid chromatography-multistage tandem mass spectrometry (LC-MRM^3) which is an LC-MS/MS method utilizing two distinct fragmentation events for enhanced selectivity^43. RA was measured using a Shimadzu Prominence UFLC XR liquid chromatography system (Shimadzu, Columbia, MD) coupled to an AB Sciex 5500 or 6500+ QTRAP hybrid triple quadrupole mass spectrometer (AB Sciex, Framingham, MA) using atmospheric pressure chemical ionization (APCI) operated in positive ion mode as previously described^43. […]

Compound	ALDH1A3 protein [1]	tissue RA levels prior to morphogenesis (wounded skin; Tlr3−/− mice, exogenous RA)	ROL and RE in wounded skin (wounded skin; RA vs ethanol)	ALDH1A3, KRT15 and KRT19 protein expression ([1]; human keratinocytes following Poly (I:C) stimulation)	amount of RA during wound healing (wounded skin; Tlr3−/− mice)	ROL and RE in wounded skin (wounded skin; Poly (I:C) vs PBS)	amount of RA during wound healing (wounded skin; WT mice)	RA in center of the wound before morphogenesis (wounded skin; wild type mice, PWD11, center vs edge, not in Tlr3−/− mice)
CC1=C(/C=C/C(C)=C/C=C/C(C)=C/C(=O)O)C(C)(C)CCC1 [RA, all-trans-retinoic acid]	robustly increased	measurable increases	not significant	–	–	–	–	–
Polyinosinic-polycytidylic acid [Poly (I:C)]	robustly increased	–	–	upregulated	much less so	not significant	substantially increased	accumulates more RA

Source: patent publication US11969402B2, “Compositions and methods for skin rejuvenation” (THE JOHNS HOPKINS UNIVERSITY, priority 2019, dated 2024)
